According to the NIST ThermoML archive (doi:10.1021/je400004j):
± gives the expanded uncertainty stated by the source.

Key:
[1] = 298.15 K; for surface tension liquid-gas: Ring tensiometer; for mass density: 101.33 kPa, Liquid, Vibrating tube method
[2] = xn = mol fraction of the nth substance listed; details: 298.15 K, Ring tensiometer

For `CCOP(=O)([O-])OCC.CCn1cc[n+](CC)c1` [1,3-diethyl-1H-imidazol-3-ium diethyl phosphate], the surface tension liquid-gas [1] was 35.5 ± 0.5 mN/m and the mass density [1] was 1125.96 ± 0.15 kg/m3.

Work on `COP(=O)([O-])OC.Cn1cc[n+](C)c1` [1,3-dimethylimidazolium dimethylphosphate] yielded a surface tension liquid-gas [1] of 48.4 ± 0.6 mN/m and a mass density [1] of 1252.6 ± 0.22 kg/m3.

Compound `CCCCn1cc[n+](CC)c1.CCOP(=O)([O-])OCC` [1-butyl-3-ethyl-1H-imidazol-3-ium diethyl phosphate] has a surface tension liquid-gas [1] of 32.2 ± 0.5 mN/m and a mass density [1] of 1083.21 ± 0.1 kg/m3.

For `CCCCn1cc[n+](C)c1.COP(=O)([O-])OC` [1-butyl-3-methyl-1H-imidazolium dimethylphosphate], the surface tension liquid-gas [1] was 38 ± 0.5 mN/m.

Compound `CCCCOP(=O)([O-])OCCCC.CCCCn1cc[n+](C)c1` [1-butyl-3-methylimidazolium dibutyl phosphate] has a surface tension liquid-gas [1] of 29.4 ± 0.4 mN/m and a mass density [1] of 1046.18 ± 0.09 kg/m3.

Work on `CCOP(=O)([O-])OCC.CCn1cc[n+](C)c1` [1-ethyl-3-methylimidazolium diethyl phosphate] yielded a surface tension liquid-gas [1] of 37.1 ± 0.5 mN/m and a mass density [1] of 1148.86 ± 0.14 kg/m3.

With `CCOP(=O)([O-])OCC.CCn1cc[n+](C)c1` [1-ethyl-3-methylimidazolium diethyl phosphate] + CCO the surface tension liquid-gas ([2]; x1 = 0.1) was 22.6 ± 0.3 mN/m, the surface tension liquid-gas ([2]; x1 = 0.2) was 23.6 ± 0.4 mN/m and the surface tension liquid-gas ([2]; x1 = 0.3) was 25 ± 0.4 mN/m. It also gave a surface tension liquid-gas ([2]; x1 = 0.4) of 26.6 ± 0.4 mN/m, a surface tension liquid-gas ([2]; x1 = 0.5) of 28.2 ± 0.4 mN/m and a surface tension liquid-gas ([2]; x1 = 0.6) of 30.1 ± 0.4 mN/m. For the same compound, the surface tension liquid-gas ([2]; x1 = 0.7) was 31.6 ± 0.5 mN/m, the surface tension liquid-gas ([2]; x1 = 0.8) was 33.2 ± 0.5 mN/m and the surface tension liquid-gas ([2]; x1 = 0.9) was 34.8 ± 0.5 mN/m. It also gave a surface tension liquid-gas ([2]; x1 = 1) of 37.1 ± 0.5 mN/m.

Work on `CCOP(=O)([O-])OCC.CCn1cc[n+](C)c1` [1-ethyl-3-methylimidazolium diethyl phosphate] + CO yielded a surface tension liquid-gas ([2]; x1 = 0.1) of 26.4 ± 0.4 mN/m, a surface tension liquid-gas ([2]; x1 = 0.2) of 28.9 ± 0.4 mN/m and a surface tension liquid-gas ([2]; x1 = 0.3) of 30.4 ± 0.4 mN/m. For the same compound, the surface tension liquid-gas ([2]; x1 = 0.4) was 31.9 ± 0.5 mN/m, the surface tension liquid-gas ([2]; x1 = 0.5) was 33.5 ± 0.5 mN/m and the surface tension liquid-gas ([2]; x1 = 0.6) was 34.7 ± 0.5 mN/m. The surface tension liquid-gas ([2]; x1 = 0.7) was 35.3 ± 0.5 mN/m, the surface tension liquid-gas ([2]; x1 = 0.8) was 37.2 ± 0.5 mN/m and the surface tension liquid-gas ([2]; x1 = 0.9) was 37.3 ± 0.5 mN/m. For the same compound, the surface tension liquid-gas ([2]; x1 = 1) was 37.1 ± 0.5 mN/m.

With `CCOP(=O)([O-])OCC.CCn1cc[n+](C)c1` [1-ethyl-3-methylimidazolium diethyl phosphate] + O the surface tension liquid-gas ([2]; x1 = 0.02) was 49.7 ± 1.4 mN/m, the surface tension liquid-gas ([2]; x1 = 0.04) was 46.5 ± 0.6 mN/m and the surface tension liquid-gas ([2]; x1 = 0.08) was 44.2 ± 0.6 mN/m. For the same compound, the surface tension liquid-gas ([2]; x1 = 0.1) was 42.6 ± 0.6 mN/m, the surface tension liquid-gas ([2]; x1 = 0.12) was 41.4 ± 0.6 mN/m and the surface tension liquid-gas ([2]; x1 = 0.14) was 40.7 ± 0.6 mN/m. The surface tension liquid-gas ([2]; x1 = 0.2) was 38.9 ± 0.5 mN/m, the surface tension liquid-gas ([2]; x1 = 0.3) was 38 ± 0.5 mN/m and the surface tension liquid-gas ([2]; x1 = 0.4) was 37.8 ± 0.5 mN/m. For the same compound, the surface tension liquid-gas ([2]; x1 = 0.5) was 37.5 ± 0.5 mN/m, the surface tension liquid-gas ([2]; x1 = 0.6) was 37.4 ± 0.5 mN/m and the surface tension liquid-gas ([2]; x1 = 0.7) was 37.3 ± 0.5 mN/m. The surface tension liquid-gas ([2]; x1 = 0.8) was 37.2 ± 0.5 mN/m, the surface tension liquid-gas ([2]; x1 = 0.9) was 37.3 ± 0.5 mN/m and the surface tension liquid-gas ([2]; x1 = 1) was 37.1 ± 0.5 mN/m.

For `CCn1cc[n+](C)c1.COP(=O)([O-])OC` [1-ethyl-3-methylimidazolium dimethylphosphate], the surface tension liquid-gas [1] was 44.3 ± 0.62 mN/m.

`CCn1cc[n+](C)c1.COP(=O)([O-])OC` [1-ethyl-3-methylimidazolium dimethylphosphate] + CCO showed a surface tension liquid-gas ([2]; x1 = 0.1) of 22.9 ± 0.4 mN/m, a surface tension liquid-gas ([2]; x1 = 0.2) of 24 ± 0.4 mN/m and a surface tension liquid-gas ([2]; x1 = 0.3) of 25.5 ± 0.4 mN/m. The surface tension liquid-gas ([2]; x1 = 0.4) was 27.5 ± 0.4 mN/m, the surface tension liquid-gas ([2]; x1 = 0.5) was 29.5 ± 0.4 mN/m and the surface tension liquid-gas ([2]; x1 = 0.6) was 31.7 ± 0.5 mN/m. It also gave a surface tension liquid-gas ([2]; x1 = 0.7) of 34 ± 0.5 mN/m, a surface tension liquid-gas ([2]; x1 = 0.8) of 36.5 ± 0.5 mN/m and a surface tension liquid-gas ([2]; x1 = 0.9) of 39.3 ± 0.6 mN/m. The surface tension liquid-gas ([2]; x1 = 1) was 44.3 ± 0.6 mN/m.

With `CCn1cc[n+](C)c1.COP(=O)([O-])OC` [1-ethyl-3-methylimidazolium dimethylphosphate] + CO the surface tension liquid-gas ([2]; x1 = 0.1) was 26.7 ± 0.4 mN/m, the surface tension liquid-gas ([2]; x1 = 0.2) was 29.5 ± 0.4 mN/m and the surface tension liquid-gas ([2]; x1 = 0.3) was 31.8 ± 0.5 mN/m. It also gave a surface tension liquid-gas ([2]; x1 = 0.4) of 33.7 ± 0.5 mN/m, a surface tension liquid-gas ([2]; x1 = 0.5) of 35.6 ± 0.5 mN/m and a surface tension liquid-gas ([2]; x1 = 0.6) of 37 ± 0.5 mN/m. The surface tension liquid-gas ([2]; x1 = 0.7) was 38.9 ± 0.6 mN/m, the surface tension liquid-gas ([2]; x1 = 0.8) was 40.6 ± 0.6 mN/m and the surface tension liquid-gas ([2]; x1 = 0.9) was 42.4 ± 0.6 mN/m. For the same compound, the surface tension liquid-gas ([2]; x1 = 1) was 44.3 ± 0.6 mN/m.

With `CCn1cc[n+](C)c1.COP(=O)([O-])OC` [1-ethyl-3-methylimidazolium dimethylphosphate] + O the surface tension liquid-gas ([2]; x1 = 0.1) was 48.9 ± 0.69 mN/m, the surface tension liquid-gas ([2]; x1 = 0.2) was 47 ± 0.63 mN/m and the surface tension liquid-gas ([2]; x1 = 0.3) was 46.4 ± 0.62 mN/m. The surface tension liquid-gas ([2]; x1 = 0.4) was 46.2 ± 0.62 mN/m, the surface tension liquid-gas ([2]; x1 = 0.5) was 45.1 ± 0.61 mN/m and the surface tension liquid-gas ([2]; x1 = 0.6) was 44.2 ± 0.6 mN/m. The surface tension liquid-gas ([2]; x1 = 0.7) was 44.1 ± 0.61 mN/m, the surface tension liquid-gas ([2]; x1 = 0.8) was 44.5 ± 0.62 mN/m and the surface tension liquid-gas ([2]; x1 = 0.9) was 44.4 ± 0.62 mN/m. For the same compound, the surface tension liquid-gas ([2]; x1 = 1) was 44.3 ± 0.62 mN/m.

With `CCO` [ethanol] the surface tension liquid-gas [1] was 21.9 ± 0.3 mN/m and the mass density [1] was 785.83 ± 0.17 kg/m3.

With `CCO` [ethanol] + CCCCOP(=O)([O-])OCCCC.CCCCn1cc[n+](C)c1 the surface tension liquid-gas ([2]; x2 = 0) was 21.9 ± 0.3 mN/m.

In the case of `CCO` [ethanol] + CCCCn1cc[n+](C)c1.COP(=O)([O-])OC, the surface tension liquid-gas ([2]; x2 = 0) is reported as 21.9 ± 0.3 mN/m.

In the case of `CCO` [ethanol] + CCCCn1cc[n+](CC)c1.CCOP(=O)([O-])OCC, the surface tension liquid-gas ([2]; x2 = 0) is reported as 21.9 ± 0.3 mN/m.

With `CCO` [ethanol] + CCOP(=O)([O-])OCC.CCn1cc[n+](C)c1 the surface tension liquid-gas ([2]; x2 = 0) was 21.9 ± 0.3 mN/m.

`CCO` [ethanol] + CCOP(=O)([O-])OCC.CCn1cc[n+](CC)c1 showed a surface tension liquid-gas ([2]; x2 = 0) of 21.9 ± 0.3 mN/m.

`CCO` [ethanol] + CCn1cc[n+](C)c1.COP(=O)([O-])OC gave a surface tension liquid-gas ([2]; x2 = 0) of 21.9 ± 0.3 mN/m.

For `CCO` [ethanol] + COP(=O)([O-])OC.Cn1cc[n+](C)c1, the surface tension liquid-gas ([2]; x2 = 0) was 21.9 ± 0.3 mN/m.

`CO` [methanol] gave a surface tension liquid-gas [1] of 22.4 ± 0.3 mN/m and a mass density [1] of 786.55 ± 0.17 kg/m3.

For `CO` [methanol] + CCCCOP(=O)([O-])OCCCC.CCCCn1cc[n+](C)c1, the surface tension liquid-gas ([2]; x2 = 0) was 22.4 ± 0.3 mN/m.

In the case of `CO` [methanol] + CCCCn1cc[n+](C)c1.COP(=O)([O-])OC, the surface tension liquid-gas ([2]; x2 = 0) is reported as 22.4 ± 0.3 mN/m.

Compound `CO` [methanol] + CCCCn1cc[n+](CC)c1.CCOP(=O)([O-])OCC has a surface tension liquid-gas ([2]; x2 = 0) of 22.4 ± 0.3 mN/m.

With `CO` [methanol] + CCOP(=O)([O-])OCC.CCn1cc[n+](C)c1 the surface tension liquid-gas ([2]; x2 = 0) was 22.4 ± 0.3 mN/m.

With `CO` [methanol] + CCOP(=O)([O-])OCC.CCn1cc[n+](CC)c1 the surface tension liquid-gas ([2]; x2 = 0) was 22.4 ± 0.3 mN/m.

Work on `CO` [methanol] + CCn1cc[n+](C)c1.COP(=O)([O-])OC yielded a surface tension liquid-gas ([2]; x2 = 0) of 22.4 ± 0.3 mN/m.

With `CO` [methanol] + COP(=O)([O-])OC.Cn1cc[n+](C)c1 the surface tension liquid-gas ([2]; x2 = 0) was 22.4 ± 0.3 mN/m.

With `O` [water] the surface tension liquid-gas [1] was 71.9 ± 0.9 mN/m.

`O` [water] + CCCCOP(=O)([O-])OCCCC.CCCCn1cc[n+](C)c1 gave a surface tension liquid-gas ([2]; x2 = 0) of 71.9 ± 0.9 mN/m.

Work on `O` [water] + CCCCn1cc[n+](C)c1.COP(=O)([O-])OC yielded a surface tension liquid-gas ([2]; x2 = 0) of 71.9 ± 0.9 mN/m.

In the case of `O` [water] + CCCCn1cc[n+](CC)c1.CCOP(=O)([O-])OCC, the surface tension liquid-gas ([2]; x2 = 0) is reported as 71.9 ± 0.9 mN/m.

`O` [water] + CCOP(=O)([O-])OCC.CCn1cc[n+](C)c1 showed a surface tension liquid-gas ([2]; x2 = 0) of 71.9 ± 0.9 mN/m.

In the case of `O` [water] + CCOP(=O)([O-])OCC.CCn1cc[n+](CC)c1, the surface tension liquid-gas ([2]; x2 = 0) is reported as 71.9 ± 0.9 mN/m.

In the case of `O` [water] + CCn1cc[n+](C)c1.COP(=O)([O-])OC, the surface tension liquid-gas ([2]; x2 = 0) is reported as 71.9 ± 0.91 mN/m.

Work on `O` [water] + COP(=O)([O-])OC.Cn1cc[n+](C)c1 yielded a surface tension liquid-gas ([2]; x2 = 0) of 71.9 ± 0.9 mN/m.
